Measurements from paper PMC11555231 (Nature Communications, 2024).
Bridge positions count the residues as written; N and C are the ends. Peptide text beside a SMILES is read from it.

Experiments:
[1] = system: HaLo-GFP-mito HeLa cells; assay: Chloroalkane penetration assay (CAPA); assay type: in vitro ADME; settings: CAPA, chloroalkane-tagged peptide, 4 h in Opti-MEM, 37 °C, chase HaLo-Tag TMR ligand 5 µM 15 min, flow cytometry; mean ± SEM of three independent experiments
Method: Following the addition of chloroacetyl-NHS to the N-terminal amino group, Cys(mmt) was selectively deprotected using 1% TFA, 5% triisopropylsilane in DCM (30 min, RT). Peptides were then cyclised on resin using 2% diisopropylethylamine in DMF overnight. Following cyclisation, Lys(ivDde) was deprotected using 2% hydrazine in DMF. The resin was then washed (3 x DCM, 3 x DMF) before on-resin coupling of chloroalkane carboxylic acid was performed on the lysine side chain using Hexafluorophosphate Azabenzotriazole Tetramethyl Uronium / diisopropylethylamine in DMF for 2 h. Global deprotection and purification were then carried out as described above. Chloroalkane carboxylate was synthesised as previously described.
CAPA assays were performed following the protocol published in ref. [51]. In brief, 40,000 HaLo- GFP-mito HeLa cells were seeded in a 96-well plate. Twenty-four hours later, cells were treated with different concentrations of chloroalkane-tagged peptides (100 µM to 200 nM for PADI4_3 and PADI4_3i and 50 µM to 100 nM for PADI4_11 and PADI4_11i) for 4 h in Opti-MEM. Media containing peptides was then removed, and cells were incubated with Opti-MEM (Gibco) for 15 min. After that time, the wash was removed, and cells were chased with HaLo-Tag TMR ligand (5 µM, Promega) in Opti-MEM for 15 min. The ligand was then removed, and cells were incubated with Opti-MEM for 30 min. Cells were then trypsinised, resuspended in phosphate-buffered saline (PBS) with 0.5% FBS and analysed using a benchtop flow cytometer (MACSQuant® VYB Flow cytometer Milteny Biotec). For each well, 10000 GFP positive single cells were analysed (gating workflow shown in Supplementary Fig. 18), and TMR mean fluorescence was normalised against a positive control (cells treated with HaLo-Tag TMR ligand but no peptide) and a negative control (non-treated cells). Analysis was performed using FlowJo (LCC) software and Prism GraphPad (Dotmatics). Data were presented as the average ± standard error of three independent replicates.

[2] = system: hPADI4-stable mES cells; assay: High content microscopy of citrullinated histone H3 (H3Cit) in hPADI4-stable mES cells; assay type: cell-based, mouse; settings: mean H3Cit intensity, peptide 1 h, without any other activating stimulus
Method: HaLo-GFP-mito HeLa cells were grown in DMEM (Gibco) supplemented with 10% foetal bovine serum (FBS), penicillin/streptomycin (100 µg/ml) and puromycin (1 µg/ml) at 37 °C, 5% CO2. HaLo-GFP-mito HeLa cell line[82] was profiled by short tandem repeat analysis (STR) and tested negative for mycoplasma by the Cell Services Technology Platform at the Francis Crick Institute. E14 –mouse embryonic stem cells (Cambridge Stem Cell Institute, UK) were cultured in plates coated with 1% gelatine in GMEM supplemented with 10% foetal calf serum (FCS) batch-tested for ES cell culture (Gibco), 0.1 mM non-essential amino acids, 2 mM L-glutamine, 1 mM sodium pyruvate, 0.1 mM β-mercaptoethanol and 50 ng/mL leukaemia inhibitory factor (LIF) (ESGRO, Millipore). For PADI4 activation, cells were cultured in GMEM containing 10% knockout serum replacement (KSR, Life Technologies), 1% FCS batch-tested for ES cell culture (Gibco), 0.1 mM non-essential amino acids, L-glutamine, 1 mM sodium pyruvate, 0.1 mM β-mercaptoethanol, 50 ng/mL LIF (ESGRO, Millipore), 1 μM PD0325901 (AxonMedChem) and 3 μM CHIR99021 (AxonMedChem). For the generation of E14 mES stably expressing human PADI4 (hPADI4-stable), human PADI4 cDNA was inserted into ES E14 cells using the piggyBac transposon system. The Gateway system was used to clone human PADI4 into the piggyBac vector using primers PADI4_AttB1_F and PADI4_AttB2_R (Table S4). pPB-CAG-CTRL (empty vector) or pPB-CAG-hPADI4 vectors […] were transfected with the piggyBac transposase (pPBase) expression vector, pCAGPBase […], by lipofection according to the manufacturer’s instructions (Lipofectamine 2000, Invitrogen). E14 cells constitutively expressing the hygromycin resistance gene and human PADI4 were selected and expanded in media containing […] hygromycin.
E14 cells were seeded onto 96-well PerkinElmer cell carrier ultra plates (Phenoplates) coated with 0.1% gelatine, at 25,000 cells per well and grown overnight at 37 °C, 5% CO2. Outer wells were excluded but medium was added to minimise any edge effects. […]

[3] = system: calcium influx into cells; assay: Calcium imaging with Calbryte 520 AM; assay type: cell-based; settings: Calbryte intensity, 25 µM peptide, 60 min
Method: Calbryte™ 520 AM dye (https://www.aatbio.com/products/calbryte-520-am) was used for quantification of calcium influx into cells. Cells were seeded onto 10 mm optical imaging plates at 10^5 cells per dish and allowed to attach overnight. Cells were stained with 10 μM Calbryte dye in normal growth medium for 1 h, 37 °C, 5% CO2, washed once with cell culture medium and imaged using a Nikon Wide-field microscope. A time series was performed, with a 488 laser image taken every second. After 1 min of imaging (baseline readings), PADI4_11 (25 μM), PADI4_11i (25 μM) or calcium ionophore (10 μM, as positive control) were added, and cells were imaged for a further 60 min. Analysis was done using imageJ —region of interest (ROI) were taken for each cell at each time point using ROI manager. Background values (ROI with no cells) were taken at each time point and removed from the same background reading (i.e. ROI at 1 second with cells minus ROI at 1 s background value). An average of at least ten cells was taken for each condition and each average data point was divided by the initial average data point for that cell, to obtain overall response.

[4] = system: cellular PADI4 in hPADI4-stable mES cell extracts; assay: Cell lysate activity assay, H3Cit2 immunoblot, with or without pre-incubation before calcium; assay type: biochemical, mouse; settings: inhibitor added 20 mins prior (pre-incubation) or concurrent with calcium
Source text: Neutrophil samples were boiled in a sodium dodecyl sulphate (SDS) buffer containing dithiothreitol (DTT) and run on a polyacrylamide gel electrophoresis (SDS-PAGE) using Criterion TGX precast gels (Any-KD; Bio-Rad Laboratories). Proteins were then transferred to a PVDF membrane (Bio-Rad Laboratories) via semi-dry transfer. The membrane was blocked with 5% BSA (Fisher Scientific) in Tris-buffered saline with 0.1% Tween-20 (TBS-T). Levels of citrullinated histone H3, total H3 and myeloperoxidase (MPO) were assessed by incubating membranes in either anti-histone H3 citrulline R2 + R8 + R17 (Abcam; ab5103 1:1000), anti-histone H3 (Millipore; 07-690 1:10000) or anti-MPO (DAKO; A0398 1:2500) overnight at 4 °C, respectively. For cell lysate-based assays and pull-down assays, membranes were incubated as above with anti-hPADI4 (Abcam; ab50332; 1:1000 in 5% BSA/TBS-T), anti-Bcr (Cell Signalling #3902S; 1:1000 in 3% milk/TBS-T) and anti-Impdh2 (Cell Signalling #57068S; 1:1000 in 3% milk/TBS-T). Membranes were washed in 0.1% TBS-T and subsequently incubated with goat anti-rabbit HRP or anti-goat (Fisher Scientific) for 1 h, followed by final washes in 0.1% TBS-T. Membranes were imaged with enhanced chemiluminescent substrate (ECL) (Thermo Fisher) on a Bio-Rad imager.
Supplementary Figure 2. PADI4_3 is a potent and selective hPADI4 inhibitor. A. […]

Row | SMILES | CP50 [1] [µM] | PADI4 activation in cells (in words) [2] | intracellular calcium levels (calcium influx) [3] | inhibition of histone 3 citrullination (H3Cit) in cell lysates containing active cellular PADI4 [4]
1 | CC(C)C[C@H](NC(=O)[C@H](CCC(N)=O)NC(=O)[C@H](CC(C)C)NC(=O)[C@@H](NC(=O)[C@H](CCC(N)=O)NC(=O)[C@H](CCCNC(=N)N)NC(=O)[C@H](Cc1ccc(O)cc1)NC(=O)[C@H](CCCNC(=N)N)NC(=O)[C@@H]1CSCC(=O)N[C@@H](Cc2ccc(O)cc2)C(=O)N[C@@H](CO)C(=O)N[C@@H](CCC(=O)O)C(=O)N1)C(C)C)C(N)=O [PADI4_11i] ({CH2CO}-YSECRYRQVLQL-NH2; thioether N-4) | 2.0 ± 0.5 | does not have the same effect | neither PADI4_11, nor PADI4_11i, were responsible for increased intracellular calcium levels | 
2 | COc1cc(C(=O)N2CC[C@@H](O)[C@@H](N)C2)cc2nc(-c3cc4ccccc4n3CC3CC3)n(C)c12 [GSK484] |  |  |  | required pre-incubation to be active
